# Values quoted from earlier work, collected in patent US20230022060A1, “TURKESTERONE HYDROXYPROPYL B-CYCLIC DEXTRIN COMPLEX AND METHOD OF MANUFACTURING THEREOF” (Gorilla Mind, LLC, priority 2021, published 2023).
# How the values were obtained:
# [1] = test system: Staphylococcus aureus, Bacillus subtilis and Escherichia coli; settings: three bacteria
# [2] = 100 mL water at 25° C.
amount that can be dissolved in water [2],Structure (SMILES),difference of antimicrobial activity between chlorogenic acid and its complex [1]
–,O=C(/C=C/c1ccc(O)c(O)c1)O[C@@H]1C[C@](O)(C(=O)O)C[C@@H](O)[C@H]1O [chlorogenic acid],No significant difference
About 14 g in 100 mL water,OC[C@H]1O[C@@H]2O[C@H]3[C@H](O)[C@@H](O)[C@@H](O[C@H]4[C@H](O)[C@@H](O)[C@@H](O[C@H]5[C@H](O)[C@@H](O)[C@@H](O[C@H]6[C@H](O)[C@@H](O)[C@@H](O[C@H]7[C@H](O)[C@@H](O)[C@@H](O[C@H]1[C@H](O)[C@H]2O)O[C@@H]7CO)O[C@@H]6CO)O[C@@H]5CO)O[C@@H]4CO)O[C@@H]3CO [α-cyclodextrin],–
